Test results as given in publication PMC3969223, “Characterization of WZ4003 and HTH-01-015 as selective inhibitors of the LKB1-tumour-suppressor-activated NUAK kinases” (Biochemical Journal, 2013).

Experiments:
Assay in all cases: Kinase profiling
Type in all cases: biochemical
[1] = biological target: MARK1 (Homo sapiens, UniProt Q9P0L2)
Outline: (§1)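 In this specificity profiling, inhibitors at 0.1 or 1 μM were run against 140 protein kinases in vitro. Activity is reported relative to DMSO-treated controls as mean ±S.D. of three reactions.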

[2] = biological target: MKK1 (Homo sapiens, UniProt Q02750); settings: 0.1 or 1 μM inhibitor; mean of triplicate
Outline: as §1

[3] = biological target: PKBα (Homo sapiens, UniProt P31749); settings: 0.1 or 1 μM inhibitor; mean of triplicate
Outline: as §1

[4] = biological target: IRAK4 (Homo sapiens, UniProt Q9NWZ3); settings: 0.1 or 1 μM inhibitor; mean of triplicate
Sequence of IRAK4 (Q9NWZ3 whole entry): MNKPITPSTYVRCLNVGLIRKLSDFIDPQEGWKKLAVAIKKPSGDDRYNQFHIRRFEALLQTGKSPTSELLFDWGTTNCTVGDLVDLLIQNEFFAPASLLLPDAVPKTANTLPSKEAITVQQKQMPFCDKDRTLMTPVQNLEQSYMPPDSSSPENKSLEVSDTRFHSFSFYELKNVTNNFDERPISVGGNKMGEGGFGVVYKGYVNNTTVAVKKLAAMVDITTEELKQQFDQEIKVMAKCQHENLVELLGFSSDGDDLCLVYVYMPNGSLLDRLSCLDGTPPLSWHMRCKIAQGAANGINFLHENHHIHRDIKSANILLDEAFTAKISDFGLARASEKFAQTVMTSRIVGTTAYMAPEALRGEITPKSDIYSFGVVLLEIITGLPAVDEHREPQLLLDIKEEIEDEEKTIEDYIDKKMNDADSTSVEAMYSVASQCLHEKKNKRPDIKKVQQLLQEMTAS
Outline: as §1

[5] = biological target: CSK (Homo sapiens, UniProt P41240); settings: 0.1 or 1 μM inhibitor; mean of triplicate
Sequence of CSK (P41240 whole entry): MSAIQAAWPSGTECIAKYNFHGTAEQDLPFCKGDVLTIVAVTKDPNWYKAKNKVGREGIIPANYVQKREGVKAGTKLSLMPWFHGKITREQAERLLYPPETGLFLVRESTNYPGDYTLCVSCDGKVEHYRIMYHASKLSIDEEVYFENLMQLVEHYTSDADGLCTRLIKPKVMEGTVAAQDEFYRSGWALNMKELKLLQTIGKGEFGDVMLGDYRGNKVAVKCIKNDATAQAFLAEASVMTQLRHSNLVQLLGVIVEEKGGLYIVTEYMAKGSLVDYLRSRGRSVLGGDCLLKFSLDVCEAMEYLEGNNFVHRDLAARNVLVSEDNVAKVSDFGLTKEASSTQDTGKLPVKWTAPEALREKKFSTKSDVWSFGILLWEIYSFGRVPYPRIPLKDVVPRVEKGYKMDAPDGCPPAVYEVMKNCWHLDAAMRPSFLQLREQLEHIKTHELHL
Outline: as §1

[6] = biological target: EIF2AK3 (Homo sapiens, UniProt Q9NZJ5); settings: 0.1 or 1 μM inhibitor; mean of triplicate
Outline: as §1

[7] = biological target: CK2 (Homo sapiens, UniProt P68400); settings: 0.1 or 1 μM inhibitor; mean of triplicate
Sequence of CK2 (P68400 whole entry): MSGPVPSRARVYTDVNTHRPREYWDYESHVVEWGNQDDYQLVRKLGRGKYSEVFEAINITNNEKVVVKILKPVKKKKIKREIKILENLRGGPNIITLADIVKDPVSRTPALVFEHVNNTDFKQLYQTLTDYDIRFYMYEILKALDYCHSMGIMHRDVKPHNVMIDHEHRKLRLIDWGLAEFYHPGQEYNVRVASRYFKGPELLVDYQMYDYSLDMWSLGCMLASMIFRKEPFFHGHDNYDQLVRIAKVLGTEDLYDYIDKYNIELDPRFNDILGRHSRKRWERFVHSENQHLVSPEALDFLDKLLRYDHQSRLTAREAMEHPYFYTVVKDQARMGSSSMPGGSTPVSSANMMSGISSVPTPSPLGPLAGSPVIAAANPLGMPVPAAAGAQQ

[8] = biological target: PKCγ (Homo sapiens, UniProt P05129); settings: 0.1 or 1 μM inhibitor; mean of triplicate
Outline: as §1

[9] = biological target: PDK1 (Homo sapiens, UniProt O15530); settings: 0.1 or 1 μM inhibitor; mean of triplicate
Sequence of PDK1 (O15530 whole entry): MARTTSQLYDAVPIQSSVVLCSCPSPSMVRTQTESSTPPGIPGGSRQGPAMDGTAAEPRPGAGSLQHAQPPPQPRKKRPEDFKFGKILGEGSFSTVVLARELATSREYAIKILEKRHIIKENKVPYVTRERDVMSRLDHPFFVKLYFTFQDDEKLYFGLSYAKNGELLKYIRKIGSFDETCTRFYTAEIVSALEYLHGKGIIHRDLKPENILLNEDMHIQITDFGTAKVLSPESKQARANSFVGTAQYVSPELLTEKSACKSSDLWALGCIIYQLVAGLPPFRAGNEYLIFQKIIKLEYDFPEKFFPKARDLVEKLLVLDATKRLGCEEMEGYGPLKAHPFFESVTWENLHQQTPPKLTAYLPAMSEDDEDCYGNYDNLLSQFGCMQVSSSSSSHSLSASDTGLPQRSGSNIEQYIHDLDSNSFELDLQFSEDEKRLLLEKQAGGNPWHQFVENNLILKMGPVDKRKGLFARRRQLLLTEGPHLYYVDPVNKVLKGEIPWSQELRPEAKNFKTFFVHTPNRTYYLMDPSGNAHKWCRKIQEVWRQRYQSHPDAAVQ
Outline: as §1

[10] = biological target: MPSK1 (Homo sapiens, UniProt O75716); settings: 0.1 or 1 μM inhibitor; mean of triplicate
Outline: as §1

[11] = biological target: CK1γ 2 (Homo sapiens, UniProt P78368); settings: 0.1 or 1 μM inhibitor; mean of triplicate
Outline: as §1

[12] = biological target: NEK2α (Homo sapiens, UniProt P51955); settings: 0.1 or 1 μM inhibitor; mean of triplicate
Outline: as §1

[13] = biological target: NEK6 (Homo sapiens, UniProt Q9HC98); settings: 0.1 or 1 μM inhibitor; mean of triplicate
Outline: as §1

[14] = biological target: MAPKAP-K3 (Homo sapiens, UniProt Q16644); settings: 0.1 or 1 μM inhibitor; mean of triplicate
Sequence of MAPKAP-K3 (Q16644 whole entry): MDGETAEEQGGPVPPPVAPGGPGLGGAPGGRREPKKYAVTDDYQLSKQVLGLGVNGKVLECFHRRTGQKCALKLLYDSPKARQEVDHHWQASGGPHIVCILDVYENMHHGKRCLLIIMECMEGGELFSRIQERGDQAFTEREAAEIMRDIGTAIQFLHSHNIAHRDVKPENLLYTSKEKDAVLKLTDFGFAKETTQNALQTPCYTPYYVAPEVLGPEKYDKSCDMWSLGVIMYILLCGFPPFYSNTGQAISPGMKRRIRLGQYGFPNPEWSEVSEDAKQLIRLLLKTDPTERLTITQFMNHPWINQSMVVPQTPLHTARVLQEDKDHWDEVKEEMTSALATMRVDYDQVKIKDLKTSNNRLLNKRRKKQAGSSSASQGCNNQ
Outline: as §1

[15] = biological target: Src (Homo sapiens, UniProt P12931); settings: 0.1 or 1 μM inhibitor; mean of triplicate
Outline: as §1

[16] = biological target: CAMKKβ (Homo sapiens, UniProt Q96RR4); settings: 0.1 or 1 μM inhibitor; mean of triplicate
Sequence of CAMKKβ (Q96RR4 whole entry): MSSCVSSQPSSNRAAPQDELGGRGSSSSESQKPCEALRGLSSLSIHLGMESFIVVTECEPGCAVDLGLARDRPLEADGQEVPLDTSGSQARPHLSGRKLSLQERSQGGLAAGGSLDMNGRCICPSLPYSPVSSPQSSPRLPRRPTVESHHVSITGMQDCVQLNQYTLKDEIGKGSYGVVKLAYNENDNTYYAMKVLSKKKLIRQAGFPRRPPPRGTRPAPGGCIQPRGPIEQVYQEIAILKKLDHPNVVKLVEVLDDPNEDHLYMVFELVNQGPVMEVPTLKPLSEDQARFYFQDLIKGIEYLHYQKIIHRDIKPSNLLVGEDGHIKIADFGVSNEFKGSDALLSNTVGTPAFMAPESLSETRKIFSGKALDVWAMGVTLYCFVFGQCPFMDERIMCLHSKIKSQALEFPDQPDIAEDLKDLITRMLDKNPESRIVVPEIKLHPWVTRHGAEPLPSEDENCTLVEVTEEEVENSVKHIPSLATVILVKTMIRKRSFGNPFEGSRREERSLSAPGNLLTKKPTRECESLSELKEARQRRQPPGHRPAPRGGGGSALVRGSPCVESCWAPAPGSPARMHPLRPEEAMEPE
Outline: as §1

[17] = biological target: PKBβ (Homo sapiens, UniProt P31751); settings: 0.1 or 1 μM inhibitor; mean of triplicate
Sequence of PKBβ (P31751 whole entry): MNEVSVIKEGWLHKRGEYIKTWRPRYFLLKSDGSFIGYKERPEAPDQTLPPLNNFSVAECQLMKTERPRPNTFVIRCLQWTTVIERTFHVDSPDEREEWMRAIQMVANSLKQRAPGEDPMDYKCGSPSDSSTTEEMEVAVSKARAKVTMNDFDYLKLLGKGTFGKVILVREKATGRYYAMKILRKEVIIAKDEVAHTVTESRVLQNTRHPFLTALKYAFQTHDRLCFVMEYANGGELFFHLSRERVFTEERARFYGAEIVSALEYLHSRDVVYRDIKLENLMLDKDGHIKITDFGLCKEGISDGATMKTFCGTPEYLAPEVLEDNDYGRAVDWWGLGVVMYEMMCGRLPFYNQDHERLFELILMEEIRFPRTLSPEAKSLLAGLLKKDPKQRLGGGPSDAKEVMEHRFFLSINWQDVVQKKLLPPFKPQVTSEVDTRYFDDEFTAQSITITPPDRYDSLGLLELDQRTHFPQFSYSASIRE
Outline: as §1

[18] = test system: AMPK
Outline: as §1

[19] = biological target: IKKε (Homo sapiens, UniProt Q14164); settings: 0.1 or 1 μM inhibitor; mean of triplicate
Sequence of IKKε (Q14164 whole entry): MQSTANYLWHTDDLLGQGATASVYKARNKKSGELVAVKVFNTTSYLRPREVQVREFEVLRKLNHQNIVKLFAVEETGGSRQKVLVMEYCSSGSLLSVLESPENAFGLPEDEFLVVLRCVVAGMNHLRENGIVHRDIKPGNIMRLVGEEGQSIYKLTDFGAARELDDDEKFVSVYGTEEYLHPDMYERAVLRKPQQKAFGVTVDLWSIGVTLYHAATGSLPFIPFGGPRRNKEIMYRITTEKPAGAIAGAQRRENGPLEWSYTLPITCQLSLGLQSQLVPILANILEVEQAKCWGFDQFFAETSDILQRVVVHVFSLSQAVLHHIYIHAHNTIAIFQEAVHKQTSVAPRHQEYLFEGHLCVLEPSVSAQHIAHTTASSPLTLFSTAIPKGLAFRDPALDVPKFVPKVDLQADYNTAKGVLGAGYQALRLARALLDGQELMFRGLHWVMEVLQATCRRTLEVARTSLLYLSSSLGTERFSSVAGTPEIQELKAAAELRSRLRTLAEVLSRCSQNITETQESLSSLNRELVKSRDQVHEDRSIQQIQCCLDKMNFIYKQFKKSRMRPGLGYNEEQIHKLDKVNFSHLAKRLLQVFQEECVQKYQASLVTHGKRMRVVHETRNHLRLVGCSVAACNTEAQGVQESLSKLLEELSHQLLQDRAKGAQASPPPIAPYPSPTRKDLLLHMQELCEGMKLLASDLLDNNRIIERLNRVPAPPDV
Outline: as §1

[20] = biological target: SIK2 (Homo sapiens, UniProt Q9H0K1); settings: 0.1 or 1 μM inhibitor; mean of triplicate
Outline: as §1

[21] = biological target: ERK2 (Homo sapiens, UniProt P28482); settings: 0.1 or 1 μM inhibitor; mean of triplicate
Outline: as §1

[22] = biological target: FGF-R1 (Homo sapiens, UniProt P11362); settings: 0.1 or 1 μM inhibitor; mean of triplicate
Outline: as §1

[23] = biological target: IGF-1R (Homo sapiens, UniProt P08069); settings: 0.1 or 1 μM inhibitor; mean of triplicate
Outline: as §1

[24] = 0.1 or 1 μM inhibitor, mean of triplicate

SMILES | MKK1 activity, percentage of DMSO control [2] [percentage] | PKBα activity, percentage of DMSO control [3] [percentage] | IRAK4 activity, percentage of DMSO control [4] [percentage] | CSK activity, percentage of DMSO control [5] [percentage] | EIF2AK3 activity, percentage of DMSO control [6] [percentage] | CK2 activity, percentage of DMSO control [7] [percentage] | PKCγ activity, percentage of DMSO control [8] [percentage] | PDK1 activity, percentage of DMSO control [9] [percentage] | MPSK1 activity, percentage of DMSO control [10] [percentage] | CK1γ 2 activity, percentage of DMSO control [11] [percentage] | NEK2α activity, percentage of DMSO control [12] [percentage] | NEK6 activity, percentage of DMSO control [13] [percentage] | MAPKAP-K3 activity, percentage of DMSO control [14] [percentage] | Src activity, percentage of DMSO control [15] [percentage] | CAMKKβ activity, percentage of DMSO control [16] [percentage] | PKBβ activity, percentage of DMSO control [17] [percentage] | IKKε activity, percentage of DMSO control [19] [percentage] | SIK2 activity, percentage of DMSO control [20] [percentage] | ERK2 activity, percentage of DMSO control [21] [percentage] | FGF-R1 activity, percentage of DMSO control [22] [percentage] | other results
Cc1nc(Nc2cnn(C3CCNCC3)c2)nc2c1N(C)C(=O)c1cc3ccccc3cc1N2C [HTH-01-015] | 113 | 87 | 103 | 103 | 99 | 120 | 107 | 102 | 103 | 109 | 103 | 99 | 96 | 76 | 87 | 104 | 85 | 112 | 125 | 105 | MARK1 activity, percentage of DMSO control [1, 24]: 106 percentage; AMPK activity, percentage of DMSO control [18, 24]: 127 percentage; IGF-1R activity, percentage of DMSO control [23]: 133 percentage
CCC(=O)Nc1cccc(Oc2nc(Nc3ccc(N4CCN(C)CC4)cc3OC)ncc2Cl)c1 [WZ4003] | 98 | 98 | 92 | 105 | 76 | 76 | 103 | 104 | 107 | 102 | 110 | 79 | 91 | 109 | 44 | 114 | 104 | 70 | 107 | 66 | IGF-1R activity, percentage of DMSO control [23]: 33 percentage
CN1C(=O)c2ccccc2N(C)c2nc(Nc3cnn(C4CCNCC4)c3)ncc21 [XMD-17-51] | – | – | – | – | – | – | – | – | – | – | – | – | – | – | – | – | – | – | – | – | Inhibition of MARK1 in profiling (in words) ([1]; 1 μM): inhibited; Inhibition of AMPK in profiling (in words) ([18]; 1 μM): inhibited
